Assay results published in publication doi:10.1101/2025.09.24.678246 (bioRxiv, 2025).
Several values for one entry are separate records, joined by “and”; a condition that tells them apart may be missing. Equal values may be shown once. Read-outs that look alike come from different tables or passages of the source.

What was measured:
Mtb H37Rv [1] = test: Supplementation experiments in Mtb (KAPA, DAPA, DTB, biotin); assay type: cell-based, Mycobacterium tuberculosis
[2] = p.o.; for C48 in Plasma / C48 in lung: CD-1 mice
Mtb H37Rv [3] = test: C48 biotin deficient TB efficacy study; assay type: in vivo, BALB/c mice; conditions: for bacterial burden per mouse, Fig. 5C / bacterial burden per mouse, Fig. 5D (second organ, not given): 200mg/kg
WT H37Rv = test: Agar MIC of C48; assay type: cell-based; conditions: Mycobacterium tuberculosis, 504 h
K. pneumoniae ATCC 43816 = test: MIC screening against Gram-negative pathogens: K. pneumoniae
Procedure: (§1) MIC measurements were based on a method previously described[6]. Overnight liquid cultures of E. coli BW, E. coli C0244, A. baumannii ATCC 17978, K. pneumoniae ATCC 43816, P. aeruginosa PA01 and E. faecium ATCC 19434 strains were inoculated with a single colony from a freshly streaked agar plate of the corresponding bacterial strain and cultured in M9 minimal medium supplemented with amino acids[6]. The bacterial culture was prepared by washing 1 mL of overnight culture in PBS pH 7.4 (x3), then diluted to OD600 = 0.5 and used to inoculate 1:1000 in M9 minimal medium with amino acids in 96-well plates. Compounds were added to 96-well plates in two-fold serial dilutions. The plates were incubated stationary at 37 °C for 18 h, then OD600 was measured. […] The assay was performed in duplicate.

Mtb H37Rv [4] = assay type: in vivo, BALB/c mice; conditions: for spleen CFU: Day 42, standard acute model, BALB/c, per mouse
P. aeruginosa PA01 = test: MIC screening against Gram-negative pathogens: P. aeruginosa
Procedure: as §1

[5] = 200 mg/kg p.o. once daily, three weeks, biotin-deficient BALB/c
[6] = day 7 (values identical to Control: baseline)

O=C1CCc2cc(N3CCN(C(=O)c4ccc(F)c(Br)c4)CC3)ncc21 [C48]
activity against Mtb cultured with 40 nM biotin (Mtb H37Rv [1]; 40 nM biotin): minimal activity | growth inhibitory effect with biotin supplementation (Mtb H37Rv [1]; 2 μM biotin, GAST): antagonized | growth inhibitory effect with DAPA supplementation (Mtb H37Rv [1]; 50 μM DAPA, GAST): antagonized | growth inhibitory effect with desthiobiotin (DTB) supplementation (Mtb H37Rv [1]; 50 μM DTB, GAST): antagonized | growth inhibitory effect with KAPA supplementation (Mtb H37Rv [1]; 50 μM KAPA, GAST): not | delivery into the lungs [2]: efficiently delivered into the lungs | C48 in Plasma ([2]; 0 hr): 0 ng/mL | C48 in lung ([2]; 0 hr): 0 ng/mL | C48 in Plasma ([2]; 1 hr): 17400 ng/mL and 12000 ng/mL and 17900 ng/mL | C48 in lung ([2]; 1 hr): 11264.6 ng/mL and 8012.8 ng/mL and 9904.4 ng/mL | C48 in Plasma ([2]; 3 hr): 7710 ng/mL and 11800 ng/mL and 12100 ng/mL | C48 in lung ([2]; 3 hr): 3273.1 ng/mL and 5600.4 ng/mL and 5866.1 ng/mL | reduction of bacterial burden in lungs (Mtb H37Rv [3]; [5]): 1.0 log10 CFU | reduction of bacterial burden in spleen (Mtb H37Rv [3]; [5]): 2.1 log10 CFU | bacterial burden per mouse, Fig. 5C (Mtb H37Rv [3]; [6]): 700 and 200 and 360 and 1090 and 400 and 320 | bacterial burden per mouse, Fig. 5D (second organ, not given) (Mtb H37Rv [3]; [6]): 1 | bacterial burden per mouse, Fig. 5C (Mtb H37Rv [3]; day 21): 88000 and 30000 and 12000 and 11000 and 133000 and 32000 | bacterial burden per mouse, Fig. 5D (second organ, not given) (Mtb H37Rv [3]; day 21): 90 and 1 (3×) and 20 and 70 | bacterial burden per mouse, Fig. 5C (Mtb H37Rv [3]; day 28): 9700 and 74000 and 49000 and 29000 and 48000 (2×) and 36000 | bacterial burden per mouse, Fig. 5D (second organ, not given) (Mtb H37Rv [3]; day 28): 20 and 6700 and 30 and 170 and 790 and 10 and 180 | plasma concentration, dose escalation (50 mg/kg p.o. for 4 days, 1 hr): 61800 and 52800 and 56400 | plasma concentration, dose escalation (50 mg/kg p.o. for 4 days, 24 hr): 12.4 and 12.1 and 9.65 | plasma concentration, dose escalation (100 mg/kg p.o. for 4 days, 0 hr): 14 and 10 and 13 | plasma concentration, dose escalation (100 mg/kg p.o. for 4 days, 1 hr): 112000 and 72300 and 72800 | plasma concentration, dose escalation (200 mg/kg p.o. for 4 days, 0 hr): 16 and 17 and 26 | plasma concentration, dose escalation (200 mg/kg p.o. for 4 days, 1 hr): 74500 and 50900 and 86400 | plasma concentration, dose escalation (200 mg/kg p.o. for 4 days, 5 hr): 57700 and 39600 and 50300 | tolerability in dose escalation (p.o. 50-200 mg/kg for 4 days): well tolerated | oral absorption in dose escalation (p.o. up to 200 mg/kg): linear oral absorption | MIC (WT H37Rv): 0.8 µM | MIC (K. pneumoniae ATCC 43816): inactive | spleen CFU (Mtb H37Rv [4]; 100mg/kg C48 p.o.): 1075 CFU and 3750 CFU and 6400 CFU and 18666.7 CFU and 6650 CFU and 6725 CFU | bacterial burden per mouse, Fig. 5B (Mtb H37Rv [4]; 100 mg/kg, day 14 (values identical to Vehicle Control: baseline)): 16500 and 43500 and 12750 and 24500 and 14500 | bacterial burden per mouse, Fig. 5B (Mtb H37Rv [4]; 100 mg/kg, day 28): 170000 | bacterial burden per mouse, Fig. 5B (Mtb H37Rv [4]; 100 mg/kg, day 42): 325000 and 425000 and 1800000 and 566667 and 170000 and 673000 | spleen CFU (Mtb H37Rv [4]; 200mg/kg C48 p.o.): 7225 CFU and 14500 CFU and 8975 CFU and 12750 CFU and 18750 CFU and 7075 CFU | bacterial burden per mouse, Fig. 5B (Mtb H37Rv [4]; 200 mg/kg, day 14 (values identical to Vehicle Control: baseline)): 16500 and 43500 and 12750 and 24500 and 14500 | bacterial burden per mouse, Fig. 5B (Mtb H37Rv [4]; 200 mg/kg, day 42): 552500 and 365000 and 477500 and 437500 and 560000 and 517500 | efficacy in the conventional mouse model of TB (Mtb H37Rv [4]; 100 and 200 mg/kg p.o.): failed to show efficacy | MIC (P. aeruginosa PA01): inactive
